Holding throughout (format): cell-based, human
The subject of assay [1] is β-catenin and SetD1A binding to the TERT promoter in Huh7 cells. The experiment in a line: Chromatin immunoprecipitation (ChIP) at the TERT promoter. The following applies: HCC (Huh7) cells, with or without 300 μmol/L H2O2. The method, then: As it has been described before (Lim S O, et al. Gastroenterology. 2008; 135: 2128-40, 40 el-8.; Hoffmeyer K, et al. Science. 2012; 336: 1549-54.), several modified ChIP (chromatin immunoprecipitation) tests were carried out. In the presence or absence of a PI3K inhibitor, an AKT inhibitor, or a GSK3β inhibitor, Huh7 cells were cultured for 4 days with or without a treatment of 300 μmol/L H2O2. Under mild shaking for 20 minutes at room temperature, the cells were fixed by using 1% paraformaldehyde. After that, the cells were rinsed twice with ice-cold PBS; resuspended with 400 μL of micrococcal nuclease buffer (50 mmol/L TrisHCl [pH 8.0], 5 mmol/L CaC12, 100 μg/mL BSA, 10 mmol/L KCl, and protease inhibitor cocktail [Roche, Basel, Switzerland; 4693159001]); and disrupted with 2 mm-diameter zirconium beads (Watson); to have micrococcal nuclease digestion (New England Biolabs, Beverly, Mass., USA; M0247S). Chromatin (150 μg) was collected and diluted in a dilution buffer (0.1% NP-40, 2 mmol/L EDTA, 150 mmol/L NaCl, 20 mmol/L TrisHCl [pH 8.0], protease inhibitor cocktail [Roche]), and a phosphatase inhibitor cocktail [Calbiochem]), and then subjected to pre-clearing with 2 μg digested salmon sperm DNA, 10 μL preimmune serum (Santa Cruz Biotechnology; sc-2027), and Dynabeads Protein G (Life Technologies; 1004D) for 2 hours at 4° C. After the immunoprecipitation, 20 μL of Dynabeads Protein G were added thereto and the culture was continued for 2 hours. The Dynabeads were washed continuously for 10 minutes with TSE 1 (0.1% SDS, 1% Triton X-100, 2 mmol/L EDTA, 20 mmol/L TrisHCl, and 150 mmol/L NaCl), TSE II (0.1% SDS, 1% Triton X-100, 2 mmol/L EDTA, 20 mmol/L TrisHCl, and 500 mmol/L NaCl), and buffer III (0.25 mol/L LiCl, 1% NP-40, 1% deoxycholate, 1 mmol/L EDTA, and 10 mmol/L TrisHCl). After that, the beads were washed 3 times with TE buffer, and extraction was made by using 1% SDS and 0.1 mol/L NaHCO3. To have reverse formaldehyde cross-linking, the elution solution was heated overnight at 65° C. By using NucleoSpin DNA clean-up kit, DNA debris were purified. By using primers specific to the TERT promoter region, the PCR amplified product was quantified by qPCR (ABI 7300; Applied Biosystems, Foster City, Calif., USA). The PCR amplification was normalized against the TERT intron. The primer sequences are as follows: β-catenin interaction site for ChIP (forward primer: TCCCGGGTCCCCGGCCCA (SEQ ID NO:8); reverse primer: […] (SEQ ID NO:9)) and TERT intron for ChIP (forward primer: […] (SEQ ID NO:10); reverse primer: […] (SEQ ID NO:11)). For each of the β-catenin interaction site which has been recorded before, 20-22 bp were added. The antibodies that are used are as follows: rabbit polyclonal anti-β-catenin (1:200, Abcam, Cambridge, Mass., USA; ab6302), mouse monoclonal anti-RNA polymerase II (1:50, Covance, Princeton, N.J., USA; MMS-126R), and rabbit polyclonal anti-SETD1A (1:100, Novus Biologicals, Littleton, Colo., USA; NBP1-81513).
Inventors of the present invention made an investigation to see whether or not the increased chromatin accessibility in TERT promoter during TERT transcription is related with β-catenin. To do so, by using intrinsic β-catenin and an antibody against histone methyl transferase SetD1A which has been reported to promote the TERT transcription based on chromatin remodeling, chromatin immunoprecipitation was carried out. When a PI3K or AKT inhibitor is treated together for chromatin immunoprecipitation, β-catenin and SetD1A, which bind to the TERT promoter in HCC cells, were reduced even in the presence of H2O2 (FIGS. 3A and 3B). However, when the treatment is carried out also with a GSK3p inhibitor, increased binding of β-catenin and SetD1A was shown regardless of a treatment with H2O2 (FIG. 3C).

Assay [2] deals with TERT expression in HCC cell lines (Huh7 and Hep3B). The assay can be described thus: TERT expression, quantitative real time-PCR and immunoblot. The note with it: HCC cells treated simultaneously with NAC and H2O2. The method, then:
Medium was exchanged every day, and the aforementioned cells were cultured for 4 days in 300 μmol/L hydrogen peroxide (H2O2) (Sigma Aldrich; H1009). In several experiments, the cells were treated for 1 hour with 5 mmol/L N-acetylcysteine (NAC) (Sigma Aldrich; A7250), 25 μmol/L idelalisib (LC Laboratoties, Woburn, Mass., USA; I-7447), 25 μmol/L perifosine (LC Laboratoties, Woburn, Mass., USA; P-6522), or 30 μmol/L GSK3β inhibitor (GSK3β inhibitor XI) (Santa Cruz; sc-204770) (31) before adding H2O2. Furthermore, sterilized distilled water (pH 7.0) was used as a negative control (i.e., mock treatment).
PCR was carried out by using TOPrealm qPCR 2×PreMIX (SYBR Green with high ROX) (Enzynomics, Daejeon, Korea; RT501M) and ABI Prism 7300 thermal cycler (Applied Biosystems, Foster City, Calif., USA). […] To examine the primer specificity, a dissociation step was additionally included.
Total 2×10^5 cells were boiled for 5 minutes in 2×SDS sample buffer (100 mmol/L TrisHCl [pH 6.8], 4% SDS, 0.2% bromophenol blue, 20% glycerol, and 200 mmol/L β-mercaptoethanol), and then subjected to SDS-PAGE and Western blotting. To detect the TERT, the cells were cultured in 2×SDS sample buffer for 15 minutes at 55° C. TERT-specific (1:300, Rockland Immunochemicals, Gilbertsville, Pa., USA; 600-401-252), AKT-specific (1:1000, Cell Signaling Technology; #9272), phospho-AKT-specific (1:2000, Cell Signaling Technology; #4060), GAPDH-specific (1:2000, Santa Cruz Biotechnology; sc-47724), or β-actin-specific (1:2000, Sigma-Aldrich, St. Louis, Mo., USA; A5441) antibody was diluted in 5% skim milk or bovine serum albumin with TBS-Tween 20, cultured overnight at 4° C., washed, and cultured with HRP-conjugated secondary antibody (1:1000, Abcam; ab131368, or ab131366). By using FUSION-SOLO imager (Vilber Lourmat, Marne La Vallee, France), a chemical fluorescence image was obtained.
In general terms: Immunoblotting shows a protein as a band on a membrane.

The subject of assay [3] is telomere length in HCC cell lines (Huh7 and Hep3B). The experiment in a line: Telomere length (Southern blot, immunoFISH, Flow FISH, quantitative PCR). The following applies: HCC cells treated simultaneously with NAC and H2O2. The method, then:
Volume of the hybridization buffer was adjusted to 100 μl per 10^5 cells. Next, each sample was cultured for 10 minutes in a water bath at 85° C. […] Total 15,000 to 20,000 nuclei were analyzed for the each separate culture. Telomere fluorescence intensity of the all nuclei at […] phase of the cell cycle was measured by using BD FACS Calibur flow cytometer (Becton Dickinson, Franklin Lakes, N.J., USA) in which CELLQUEST software is used. The established ImmunoFISH protocol (Plentz R R, et al., Hepatology. 2007; 45: 968-76) was used with slight modifications. The paraffin-embedded section was subjected to de-paraffinization using xylene, and then rehydrated using ethanol gradient. Antigen retrieval was carried out by boiling in 100 mmol/L sodium citrate (pH 6.0) for 10 minutes in a microwave. After permeation of proteinase K (15 μg/mL in PBS [pH 7.4]) for 20 minutes at 37° C., 8-oxo-dG-specific antibody (1:100, Abcam, Cambridge, Mass., USA; ab62623) was subjected to 1% BSA dilution in PBS 0.1% Triton X-100 and cultured overnight at room temperature. After washing, the slide was treated with Alexa 647 secondary antibody for 1 hour. […] After denaturation for 6 minutes at 90° C., the sample was hybridized for 2 hours at dark place. […] After washing, the slide was rinsed with PBS containing DAPI, and then sealed with a DAPI sealing agent (mounting medium) (Vector Laboratories, Burlingame, Calif., USA). Simultaneously, the inventors of the present invention carried out centromere staining as an internal control for telomere staining and 8-oxo-dG staining. […] For quantification of the telomere fluorescence intensity, centromere fluorescence intensity, and 8-oxo-dG fluorescence intensity, the same exposure time was employed. The telomere fluorescence level and 8-oxo-dG fluorescence level of tumor tissues were calculated by division of the fluorescence level in non-tumor tissues corresponding to 5 random fields. The image analysis was carried out by using Image-Pro plus 6.0 software (Media Cybernetics, Inc., Rockville, Md., USA). Telomere length was determined by using the non-radioactive chemical fluorescence TeloTAGGG telomere length assay (Roche; Cat. No. 12 209 136 001) according to the manual. Genomic DNA was separated from HCC cells using GeneJET Genomic DNA Purification Kit (Thermo Scientific; #K0721), and then 4 μg of the genomic DNA was digested for 16 hours at 37° C. with 20 units of […] digested DNA was subjected to 0.8% agarose gel electrophoresis, and then transferred to a positively charged nylon membrane using capillary transfer. The blotted DNA was hybridized for 16 hours at 42° C. with a digoxigenin (DIG)-labeled probe that is specific to the telomere repeat. After that, it was cultured for 30 minutes at room temperature with DIG-specific antibody conjugated to an alkaline phosphatase Based on quantitative PCR analysis using the genomic DNA extracted from cells, relative telomere repeat copy number (T) and single copy number (S) were determined, and the calculation was made like previous method in which T/S ratio is continuously modified (Cawthon R M. Telomere length measurement by a novel monochrome multiplex quantitative PCR method. Nucleic Acids Res. 2009; 37: e21).

The record followed here is patent US10463669B2, “Composition for treating or preventing liver cancer” (Seoul National University R&DB Foundation, priority 2016, dated 2019).

Take `O=C1NC(=O)C(c2cn(CCCO)c3ncccc23)=C1c1cnccn1` [GSK3β inhibitor XI]: in assay [1], the “SetD1A binding to the TERT promoter” value is given as “increased” and the “β-catenin binding to the TERT promoter” value is listed as “increased”.
On to `CC(=O)N[C@@H](CS)C(=O)O` [NAC, N-acetylcysteine], for which the “H2O2-induced increased TERT expression” value in assay [2] is given as “disappeared”. Further, the “H2O2-induced increased telomere length” value in assay [3] is “disappeared”.
Consider `CCCCCCCCCCCCCCCCCCOP(=O)([O-])OC1CC[N+](C)(C)CC1` [perifosine], for which, in assay [1], the “SetD1A binding to the TERT promoter” value is “reduced” and the “β-catenin binding to the TERT promoter” value is listed as “reduced”.
